Literature values, collected in patent US8052982B2, “Bioimplant formulation comprising lecithin and stearin” (Peptech Animal Health PTY Limited, priority 1998, dated 2011).

log octanol/water partition (log P)	SMILES
−0.36	CCC[C@H](N[C@@H](C)C(=O)N1[C@H](C(=O)O)C[C@@H]2CCCC[C@@H]21)C(=O)O [perindoprilate]
0.69	C[C@H](N[C@@H](CCc1ccccc1)C(=O)O)C(=O)N1Cc2ccccc2C[C@H]1C(=O)O [quinaprilate]
1.02	C[C@H](N[C@@H](CCc1ccccc1)C(=O)O)C(=O)N1[C@H](C(=O)O)C[C@H]2CCCC[C@@H]21 [trandolaprilate]

Continued, molecule first:

SMILES	log octanol/water partition (log P)
C[C@H](CS)C(=O)N1CCC[C@H]1C(=O)O [captopril]	−1.86
Cn1c(=O)c2c(ncn2CCO)n(C)c1=O [etofylline]	0.35
O=C(O)c1ccccc1Nc1cccc(C(F)(F)F)c1 [flufenamic acid]	1.14
C[C@@H](O)[C@@H]1NC(=O)[C@H](CCCCN)NC(=O)[C@@H](Cc2c[nH]c3ccccc23)NC(=O)[C@H](Cc2ccccc2)NC(=O)[C@@H](NC(=O)[C@H](N)Cc2ccccc2)CSSC[C@@H](C(=O)N[C@H](CO)[C@@H](C)O)NC1=O [octreotide]	1.40
CC(CN1c2ccccc2Sc2ccccc21)N(C)C (centres unmarked) [promethazine]	4.75
